Experimental data reported in ChEMBL document CHEMBL1201862, “PubChem BioAssay data set” (2004).
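Where inhibition never reached the appropriate level, the endpoint shown equals the highest concentration tested. Otherwise, values were interpolated linearly from a five-concentration, 48-hour dose response in 96-well plates. At the GI50, growth is halved.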 Activity calls are given as the source filed them. Rule as the data show it: active = GI50 up to about 1.1 µM and inactive = higher.

How the values were obtained:
Assay in all cases: inhibition of tumour cell growth, NCI panel, 48 h
786-0 = test system: 786-0
A549 = test system: A549
ACHN = test system: ACHN
CCRF-CEM = test system: CCRF-CEM
COLO 205 = test system: COLO 205
DMS-273 = test system: DMS-273
EKVX = test system: EKVX
HCC 2998 = test system: HCC 2998
HCT-116 = test system: HCT-116
HCT-15 = test system: HCT-15
HL-60 = test system: HL-60
HOP-18 = test system: HOP-18
HOP-62 = test system: HOP-62
HOP-92 = test system: HOP-92
HT-29 = test system: HT-29
IGROV-1 = test system: IGROV-1
KM-20L2 = test system: KM-20L2
LOX IMVI = test system: LOX IMVI
LXFL 529 = test system: LXFL 529
M19-MEL = test system: M19-MEL
MOLT-4 = test system: MOLT-4
Malme-3M = test system: Malme-3M
NCI-H226 = test system: NCI-H226
NCI-H23 = test system: NCI-H23
NCI-H460 = test system: NCI-H460
OVCAR-3 = test system: OVCAR-3
OVCAR-5 = test system: OVCAR-5
OVCAR-8 = test system: OVCAR-8
RPMI-8226 = test system: RPMI-8226
RXF 393 = test system: RXF 393
SF-268 = test system: SF-268
SF-295 = test system: SF-295
SF-539 = test system: SF-539
SK-MEL-28 = test system: SK-MEL-28
SK-MEL-2 = test system: SK-MEL-2
SK-OV-3 = test system: SK-OV-3
SN12C = test system: SN12C
SNB-19 = test system: SNB-19
SNB-75 = test system: SNB-75
SNB-78 = test system: SNB-78
SR = test system: SR
SW-620 = test system: SW-620
TK-10 = test system: TK-10
U-251 = test system: U-251
UACC-257 = test system: UACC-257
UACC-62 = test system: UACC-62
UO-31 = test system: UO-31
XF498 = test system: XF498
A498 = test system: A498
CAKI-1 = test system: CAKI-1
DLD-1 = test system: DLD-1
DMS-114 = test system: DMS-114
KM12 = test system: KM12
M14 = test system: M14
OVCAR-4 = test system: OVCAR-4

With `Cc1cc2c(=O)cc(-c3ccncc3)oc2c(C(N)=O)c1C` as the compound, how does the GI50 (786-0) read?
Its GI50 is > 100 µM (inactive).

And the GI50 (A549)?
The GI50 was > 100 µM (inactive).

What about the GI50 (ACHN) of the same compound?
Its GI50 is > 100 µM (inactive).

And the GI50 (CCRF-CEM)?
Its GI50 is > 100 µM (inactive).

And the GI50 (COLO 205)?
Its GI50 is > 100 µM (inactive).

What about the GI50 (DMS-273) of the same compound?
Its GI50 is > 100 µM (inactive).

And the GI50 (EKVX)?
Its GI50 is > 100 µM (inactive).

And the GI50 (HCC 2998)?
Its GI50 is > 100 µM (inactive).

What about the GI50 (HCT-116) of the same compound?
Its GI50 is 83.4 µM (inactive).

And the GI50 (HCT-15)?
Its GI50 is over 100 µM.

And the GI50 (HL-60)?
The GI50 was > 100 µM (inactive).

What about the GI50 (HOP-18) of the same compound?
Its GI50 is > 100 µM (inactive).

And the GI50 (HOP-62)?
The GI50 was > 100 µM (inactive).

What about the GI50 (HOP-92) of the same compound?
Its GI50 is > 100 µM (inactive).

And the GI50 (HT-29)?
Its GI50 is > 100 µM (inactive).

What about the GI50 (IGROV-1) of the same compound?
Its GI50 is > 100 µM (inactive).

What about the GI50 (KM-20L2) of the same compound?
Its GI50 is > 100 µM (inactive).

And the GI50 (LOX IMVI)?
Its GI50 is > 100 µM (inactive).

And the GI50 (LXFL 529)?
The GI50 was > 100 µM (inactive).

And the GI50 (M19-MEL)?
The GI50 was > 100 µM (inactive).

What about the GI50 (MOLT-4) of the same compound?
Its GI50 is > 100 µM (inactive).

What about the GI50 (Malme-3M) of the same compound?
Its GI50 is > 100 µM (inactive).

What about the GI50 (NCI-H226) of the same compound?
Its GI50 is > 100 µM (inactive).

And the GI50 (NCI-H23)?
The GI50 was > 100 µM (inactive).

And the GI50 (NCI-H460)?
The GI50 was 87.9 µM (inactive).

And the GI50 (OVCAR-3)?
Its GI50 is > 100 µM (inactive).

And the GI50 (OVCAR-5)?
Its GI50 is > 100 µM (inactive).

What about the GI50 (OVCAR-8) of the same compound?
Its GI50 is > 100 µM (inactive).

And the GI50 (RPMI-8226)?
Its GI50 is > 100 µM (inactive).

What about the GI50 (RXF 393) of the same compound?
The GI50 was > 100 µM (inactive).

And the GI50 (SF-268)?
The GI50 was > 100 µM (inactive).

What about the GI50 (SF-295) of the same compound?
The GI50 was > 100 µM (inactive).

And the GI50 (SF-539)?
The GI50 was > 100 µM (inactive).

And the GI50 (SK-MEL-28)?
The GI50 was > 100 µM (inactive).

And the GI50 (SK-MEL-2)?
The GI50 was > 100 µM (inactive).

And the GI50 (SK-OV-3)?
The GI50 was > 100 µM (inactive).

What about the GI50 (SN12C) of the same compound?
The GI50 was > 100 µM (inactive).

And the GI50 (SNB-19)?
The GI50 was > 100 µM (inactive).

What about the GI50 (SNB-75) of the same compound?
Its GI50 is > 100 µM (inactive).

And the GI50 (SNB-78)?
The GI50 was > 100 µM (inactive).

And the GI50 (SR)?
The GI50 was > 100 µM (inactive).

And the GI50 (SW-620)?
Its GI50 is > 100 µM (inactive).

And the GI50 (TK-10)?
Its GI50 is > 100 µM (inactive).

And the GI50 (U-251)?
The GI50 was > 100 µM (inactive).

What about the GI50 (UACC-257) of the same compound?
Its GI50 is > 100 µM (inactive).

And the GI50 (UACC-62)?
Its GI50 is 99.8 µM (inactive).

And the GI50 (UO-31)?
Its GI50 is > 100 µM (inactive).

What about the GI50 (XF498) of the same compound?
Its GI50 is > 100 µM (inactive).

For `N#CC(C(=O)/C(=N\Nc1nc(S)nn1N)C(C#N)c1ccc(Cl)cc1)c1ccc(Cl)cc1` (centres undefined), which GI50 (786-0) is on record?
The GI50 was > 100 µM (inactive).

What about the GI50 (A498) of the same compound?
The GI50 was > 100 µM (inactive).

What about the GI50 (A549) of the same compound?
Its GI50 is > 100 µM (inactive).

What about the GI50 (ACHN) of the same compound?
Its GI50 is > 100 µM (inactive).

And the GI50 (CAKI-1)?
Its GI50 is > 100 µM (inactive).

And the GI50 (COLO 205)?
Its GI50 is > 100 µM (inactive).

What about the GI50 (DLD-1) of the same compound?
The GI50 was > 100 µM (inactive).

And the GI50 (DMS-114)?
Its GI50 is > 100 µM (inactive).

And the GI50 (DMS-273)?
Its GI50 is > 100 µM (inactive).

What about the GI50 (EKVX) of the same compound?
Its GI50 is > 100 µM (inactive).

What about the GI50 (HCC 2998) of the same compound?
Its GI50 is > 100 µM (inactive).

And the GI50 (HCT-116)?
The GI50 was > 100 µM (inactive).

And the GI50 (HCT-15)?
The GI50 was over 100 µM.

And the GI50 (HOP-18)?
The GI50 was > 100 µM (inactive).

And the GI50 (HOP-62)?
Its GI50 is > 100 µM (inactive).

What about the GI50 (HOP-92) of the same compound?
Its GI50 is > 100 µM (inactive).

What about the GI50 (HT-29) of the same compound?
Its GI50 is > 100 µM (inactive).

What about the GI50 (IGROV-1) of the same compound?
The GI50 was > 100 µM (inactive).

And the GI50 (KM-20L2)?
The GI50 was > 100 µM (inactive).

And the GI50 (KM12)?
Its GI50 is > 100 µM (inactive).

And the GI50 (LOX IMVI)?
Its GI50 is > 100 µM (inactive).

What about the GI50 (LXFL 529) of the same compound?
The GI50 was > 100 µM (inactive).

What about the GI50 (M14) of the same compound?
The GI50 was > 100 µM (inactive).

And the GI50 (M19-MEL)?
The GI50 was > 100 µM (inactive).

And the GI50 (Malme-3M)?
The GI50 was > 100 µM (inactive).

And the GI50 (NCI-H226)?
Its GI50 is > 100 µM (inactive).

What about the GI50 (NCI-H23) of the same compound?
The GI50 was > 100 µM (inactive).

And the GI50 (NCI-H460)?
The GI50 was > 100 µM (inactive).

And the GI50 (OVCAR-3)?
Its GI50 is > 100 µM (inactive).

What about the GI50 (OVCAR-4) of the same compound?
The GI50 was > 100 µM (inactive).

What about the GI50 (OVCAR-5) of the same compound?
The GI50 was > 100 µM (inactive).

And the GI50 (OVCAR-8)?
Its GI50 is > 100 µM (inactive).

What about the GI50 (RPMI-8226) of the same compound?
The GI50 was > 100 µM (inactive).

And the GI50 (RXF 393)?
The GI50 was > 100 µM (inactive).

What about the GI50 (SF-268) of the same compound?
The GI50 was > 100 µM (inactive).

And the GI50 (SF-295)?
The GI50 was > 100 µM (inactive).

What about the GI50 (SF-539) of the same compound?
Its GI50 is > 100 µM (inactive).

What about the GI50 (SK-MEL-28) of the same compound?
The GI50 was > 100 µM (inactive).

What about the GI50 (SK-MEL-2) of the same compound?
The GI50 was > 100 µM (inactive).

What about the GI50 (SK-OV-3) of the same compound?
The GI50 was > 100 µM (inactive).

What about the GI50 (SN12C) of the same compound?
Its GI50 is > 100 µM (inactive).

What about the GI50 (SNB-19) of the same compound?
Its GI50 is > 100 µM (inactive).

And the GI50 (SNB-75)?
Its GI50 is > 100 µM (inactive).

What about the GI50 (SNB-78) of the same compound?
The GI50 was > 100 µM (inactive).

What about the GI50 (SW-620) of the same compound?
The GI50 was > 100 µM (inactive).

What about the GI50 (TK-10) of the same compound?
Its GI50 is > 100 µM (inactive).

What about the GI50 (U-251) of the same compound?
Its GI50 is > 100 µM (inactive).

And the GI50 (UACC-257)?
The GI50 was > 100 µM (inactive).

What about the GI50 (UACC-62) of the same compound?
The GI50 was > 100 µM (inactive).

And the GI50 (UO-31)?
The GI50 was > 100 µM (inactive).

And the GI50 (XF498)?
Its GI50 is > 100 µM (inactive).
